We go through 3 molecules from patent US20140056983A1, “FOOD ADDITIVE FOR RUMINANTS BASED ON EUGENOL AND CINNAMALDEHYDE” (priority 2005, published 2014).

Experiment [1] deals with rumen fluid. As to the kind of experiment: Study 5: in vitro feed digestibility, dose of the mixture versus monensin (Tilley and Terry method). Also noted: species or system cows. To be noted: after 24 hours; mixture 28% eugenol and 17% cinnamaldehyde at 3, 30, 300 mg per animal/per day; monensin as reference. The method, then: In the table above, the characteristics of each food are expressed as a percentage of dry matter, total protein, neutral digestible fiber (NDF), acid digestible fiber (ADF), for the oats, alfalfa, a complete feed (TMR). […] The effects of a mixture according to the invention on the feed digestibility according to the Tilley and Terry method were analyzed. […] Control bottles were also prepared, containing ethanol, to avoid the parasitic effects of fermentation due to ethanol. […] The results were analyzed by using mixed SAS procedures. The results were compared to the feed containing the monensin. The results from the feed containing monensin were considered a reference result. […] Thus, this fable reflects the digestibility of neutral digestible fiber (NDFd), digestibility of acid digestible fiber (ADFd), and dry matter digestibility (DMd), after 24 hours.

Experiment [2] deals with Holstein-Freisan milk cows. The experiment is described as follows: Study 2: food consumption and dairy production in milk cows, Latin Square 4x4. Format: in vivo. The method, then: In the second study, the effect of a variation in the relative proportions of eugenol and cinnamaldehyde in a food additive on the production of meat and the dairy production was tested.
In this test, sixteen Holstein-Freisan milk cows, in their eighth week of lactation, were divided for Latin type Square 4×4 testing. Each period of treatment lasted two weeks.
The first group received a food without an additive.
The second group received a food containing 30 ppm cinnamaldehyde.
The third group received a food containing a mixture of 30 ppm cinnamaldehyde and 15 ppm of eugenol.
The fourth group received a food containing a mixture of 30 ppm eugenol and 16 ppm of cinnamaldehyde.
During each treatment period, the food consumption and the dairy production were measured.

The test system of experiment [3] is liquid taken from the rumen. The experiment is described as follows: Study 1: in vitro digestibility of dehydrated alfalfa in rumen liquid (Tilley and Terry method). Also noted: species or system cows. To be noted: for ADFd (digestibility of acid digestible fiber) / DMd (digestibility of the dry matter) / NDFd (digestibility of neutral digestible fiber): dehydrated alfalfa, 30 ppm additive in total (mixture 15 + 15 ppm), 39° C., 24 hours; for digestibility of the fibers of the dehydrated alfalfa (in words): versus no additive. As to the method:
During this first study, the effects of a mixture according to the invention on the digestibility of the feed of the ruminant animals was analyzed, by conducting an “in vitro” study in accordance with the Tilley and Terry method (1963). For a more complete description of this method, please refer to the following publication: […]. and Terry, R. A. 1963. A two stage technique for the in vitro digestion of forage crops. J. Brit. Grassland Soc. 18-104-111. For incubation the following was used: • a) The basic feed made up of 100% dehydrated alfalfa, supplemented by an equal amount of Peugenol, or of cinnamaldehyde, or of a mixture of the two components; • b) MacDougall buffer; • c) Liquid taken from the empty rumen of four animals permanently equipped with a nozzle on the level of the rumen and nourished with the basic feed. […] The ruminated liquid originated in fistulated cows during the first 100 days of lactation. The state of the first container was preserved, without making any addition. […] In the third container, 30 ppm cinnamaldehyde was added. In the fourth container, 15 ppm of eugenol and 15 ppm of cinnamaldehyde was added. The containers were incubated at 39° C. during 24 hours. The DacronTM sachets were removed, washed and dried at 55° C. Various digestibility parameters were determined according to the Van Soest et al. method (1991). For a more complete description of this method, please refer to the following publication: Van Soest, P. J. Robertson. J. D., and Lewis, B. A. 1991. Methods for dietary fibre, neutral detergent fibre and non-starch polysaccharides in relation to animal nutrition. J. Dairy Se. 74: 3583-3597.

The mark [4] stands for this setting: milk cows, eighth week of lactation, two-week treatment periods, ppm in food.

As to `CC[C@@]1([C@@H]2O[C@@H]([C@H]3O[C@@](O)(CO)[C@H](C)C[C@@H]3C)C[C@@H]2C)CC[C@H]([C@]2(C)CC[C@]3(C[C@H](O)[C@@H](C)[C@@H]([C@@H](C)[C@@H](OC)[C@H](C)C(=O)O)O3)O2)O1` [MON, sodium-monensin], in experiment [1], the “ADFd (digestibility of acid digestible fiber)” value (shortened to “ADFd”) amounted to 24.38, the “DMd (dry matter digestibility)” value was 43.43 and the “NDFd (digestibility of neutral digestible fiber)” value (“NDFd” below) amounted to 22.24.

`O=CC=Cc1ccccc1` [Cinnamaldehyde, cinnamaldehyde]: in experiment [2] (setting [4]), the “Food Consumption” value is on record as 2.571b kg MS/animal/d and the “Milk Production” value is listed as 37.23 l/animal/d. Moreover, in experiment [2] (versus no additive), the “food consumption (in words)” value is on record as “reduction” and the “milk production (in words)” value is on record as “reduction”. Further, in experiment [3], the “ADFd” value turned out to be 8.53%, the “DMd (digestibility of the dry matter)” value is 39.06%, the “NDFd” value is recorded as 4.83% and the “digestibility of the fibers of the dehydrated alfalfa (in words)” value is recorded as “does not improve”.

For the molecule `C=CCc1ccc(O)c(OC)c1` [Eugenol, eugenol], in experiment [3], the “ADFd” value stood at 8.05%, the “DMd (digestibility of the dry matter)” value was determined as 40.02%, the “NDFd” value came out at 5.63% and the “digestibility of the fibers of the dehydrated alfalfa (in words)” value was “does not improve”.
